In PubChem BioAssay AID1963969 (Molecular Pharmacology Branch, DTP, NCI, 2024):
Where “and” joins values, the source holds several entries; their conditions need not be identical. Identical values can stand only once.

Test system: 817829-284-R-J1-PDC multi-cell spheroid viability
Test: Anticancer human tumor 817829-284-R-J1-PDC patient-derived colon adenocarcinoma cell line growth inhibition [PI3K]
Settings: for viability, T/C: stronger effect = lower value; active = viability on the fitted dose curve at most 10% of control; inactive = the rest
Excerpt: Combinatorial screen of targeted agents with the PI3K inhibitors inavolisib, alpelisib, duvelisib, and copanlisib in multi-cell type tumor spheroids
A high-throughput screen of multi-cell type tumor spheroids was designed to identify active combinations of targeted small molecules and PI3K pathway inhibitors. Complex spheroids include a stromal component modeled by human endothelial cells (HUVEC) and fibroblasts modeled by human mesenchymal stem cells (MSCs). The concentration ranges selected for each drug and investigational agent were based upon clinically achievable concentrations if the clinical Cmax of the agent was known.
Compounds. The drugs and investigational agents: inavolisib (NSC800729), alpelisib (NSC765974), duvelisib (NSC772469), copanlisib (NSC816437), ipatasertib (NSC767898), afuresertib (NSC778305), talazoparib (NSC767125), sapanisertib (NSC764658), selumetinib (NSC741078), tovorafenib (DAY101, NSC766906), vemurafenib (NSC761431), ravoxertinib (NSC781343), sotorasib (NSC818433), MRTX1133 (NSC 836407), abemaciclib (NSC 768073), palbociclib (NSC758247), venetoclax (NSC 766270), SY5609 (NSC837396), enzalutamide (NSC755605), and darolutamide (NSC825331), were obtained from the National Cancer Institute (NCI) Developmental Therapeutics Program Chemical Repository. The FDA-approved anticancer drug set is available from the NCI Developmental Therapeutics Program. […] The stock solutions were prepared in dimethyl sulfoxide (DMSO, Sigma-Aldrich, St. Louis, MO, cat. D2650) at 800-fold the tested concentration and stored at -70 degrees C prior to their use. All drugs and investigational agents were tested over a range starting from a high concentration at or near the clinical Cmax and decreasing in half-log increments. If the clinical Cmax for an agent had not been determined, the highest concentration tested was 10 microM.
Cell Culture. All cells were maintained in an incubator at 37 degrees C and 5% CO2 with 95% humidity. The PDC lines were cultured according to standard operating procedures established by the NCI PDMR (https://pdmr.cancer.gov/sops/default.htm). All PDCs were thawed and cultured in Matrigel-coated flasks prepared with a working solution of 1X Ham's F-12 nutrient mix, without supplementation (Invitrogen, Waltham, MA, cat. 11765054), 100 U/mL penicillin-streptomycin (Invitrogen, cat. 15140122), and 2.5% Matrigel (Corning Inc., Corning, NY, cat. 354248) for the first three passages. The 354836-022-R-J1-PDC, 475296-252-R-J1-PDC, and 997726-040-R-J2-PDC lines were cultured in 6A media, which includes advanced DMEM/F-12 (Thermo Fisher Scientific, cat. 12634028), 10 mM HEPES (Thermo Fisher Scientific, cat. 15630080), 1X GlutaMAX supplement (Thermo Fisher Scientific, cat. 35050061), 0.1 mg/mL primocin (InvivoGen, San Diego, CA, cat. ant-pm-2), 10% defined fetal bovine serum, heat inactivated (HyClone Laboratories Inc., Logan, UT, cat. SH30070.03HI), 50% L-WRN conditioned media (ATCC, cat. CRL-3276), 1.25 mM N-Acetyl-L-cysteine (Sigma-Aldrich, cat. A9165), 10 mM nicotinamide (Sigma-Aldrich, cat. N0636), 1X B-27 supplement (Thermo Fisher Scientific, cat. 17504044), 1X N-2 supplement (Thermo Fisher Scientific, cat. 17502048), and 10 microM Y-27632 dihydrochloride (Tocris Bioscience, Bristol, United Kingdom, cat. 1254). The 624824-186-R-J2-PDC line was cultured in 6C/Colon 1B media, which includes all 6A media components plus 50 ng/mL human EGF recombinant protein (Thermo Fisher Scientific, cat. PHG0311). […]

[1] = curve of first compound, second compound 0.0316 µM
[2] = curve of first compound, second compound 0.1 µM
[3] = curve of first compound, second compound 0.316 µM
[4] = curve of first compound, second compound 1 µM
[5] = curve of first compound, second compound 3.16 µM
[6] = curve of first compound, second compound 10 µM
[7] = second compound 0.0316 µM, first compound 0.0316 µM
[8] = second compound 0.0316 µM, first compound 0.1 µM
[9] = second compound 0.1 µM, first compound 0.0316 µM
[10] = second compound 0.1 µM, first compound 0.1 µM
[11] = second compound 0.316 µM, first compound 0.0316 µM
[12] = second compound 0.316 µM, first compound 0.1 µM
[13] = second compound 1 µM, first compound 0.0316 µM
[14] = second compound 1 µM, first compound 0.1 µM
[15] = second compound 3.16 µM, first compound 0.0316 µM
[16] = second compound 3.16 µM, first compound 0.1 µM
[17] = second compound 10 µM, first compound 0.0316 µM
[18] = second compound 10 µM, first compound 0.1 µM
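Also: spheroids exposed to agents for seven days before readout.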
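For viability, T/C in this document: percent of vehicle DMSO control viability which is 100%.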

CC(=O)c1c(C)c2cnc(Nc3ccc(N4CCNCC4)cn3)nc2n(C2CCCC2)c1=O + Cc1nc(NC(=O)N2CCCC2C(N)=O)sc1-c1ccnc(C(C)(C)C(F)(F)F)c1
2.05 nM: IC50 [5]
inactive: viability, T/C (second compound 0.0316 µM, first compound 0.000316 µM) 88.4% | viability, T/C (second compound 0.0316 µM, first compound 0.001 µM) 96.1% | viability, T/C (second compound 0.0316 µM, first compound 0.00316 µM) 70.8% | viability, T/C (second compound 0.0316 µM, first compound 0.01 µM) 60.1% | viability, T/C [7] 52.8% | viability, T/C [8] 38.2% | viability, T/C (second compound 0.1 µM, first compound 0.000316 µM) 71.2% | viability, T/C (second compound 0.1 µM, first compound 0.001 µM) 79.7% | viability, T/C (second compound 0.1 µM, first compound 0.00316 µM) 52.4% | viability, T/C (second compound 0.1 µM, first compound 0.01 µM) 45% | viability, T/C [9] 38.1% | viability, T/C [10] 47.6% | viability, T/C (second compound 0.316 µM, first compound 0.000316 µM) 75.1% | viability, T/C (second compound 0.316 µM, first compound 0.001 µM) 53.8% | viability, T/C (second compound 0.316 µM, first compound 0.00316 µM) 65.9% | viability, T/C (second compound 0.316 µM, first compound 0.01 µM) 66.9% | viability, T/C [11] 34.7% | viability, T/C [12] 44.7% | viability, T/C (second compound 1 µM, first compound 0.000316 µM) 43.6% | viability, T/C (second compound 1 µM, first compound 0.001 µM) 55.4% | viability, T/C (second compound 1 µM, first compound 0.00316 µM) 51.6% | viability, T/C (second compound 1 µM, first compound 0.01 µM) 42.1% | viability, T/C [13] 37.3% | viability, T/C [14] 37% | viability, T/C (second compound 3.16 µM, first compound 0.000316 µM) 62.5% | viability, T/C (second compound 3.16 µM, first compound 0.001 µM) 58.9% | viability, T/C (second compound 3.16 µM, first compound 0.00316 µM) 38.3% | viability, T/C (second compound 3.16 µM, first compound 0.01 µM) 49.3% | viability, T/C [15] 32% | viability, T/C [16] 31.5% | viability, T/C (second compound 10 µM, first compound 0.000316 µM) 51.8% | viability, T/C (second compound 10 µM, first compound 0.001 µM) 43.8% | viability, T/C (second compound 10 µM, first compound 0.00316 µM) 40.7% | viability, T/C (second compound 10 µM, first compound 0.01 µM) 47.5% | viability, T/C [17] 43.8% | viability, T/C [18] 21.3%
23.6 nM: IC50 [3]
4.34 nM: IC50 [2]
3.26 nM: IC50 [4]
< 0.316 nM: IC50 [6]
27.2 nM: IC50 [1]

CNC(=O)c1ccc(N2C(=S)N(c3ccc(C#N)c(C(F)(F)F)c3)C(=O)C2(C)C)cc1F
> 10000 nM and 6480 nM: IC50 (curve of compound)
inactive: viability, T/C (compound 0.0316 µM) 86.9% and 87.2% and 88.4% | viability, T/C (compound 0.1 µM) 93.2% and 97.5% and 76.6% | viability, T/C (compound 0.316 µM) 70.6% and 71.9% and 77.2% | viability, T/C (compound 1 µM) 99.3% and 68.8% and 80.3% | viability, T/C (compound 3.16 µM) 84.2% and 97.4% and 67.9% | viability, T/C (compound 10 µM) 65.4% and 29% and 68.9%

CC1(C)CCC(Nc2ncc(C(F)(F)F)c(-c3c[nH]c4c(P(C)(C)=O)c(C#N)ccc34)n2)CN1 (stereo unspecified) + Cc1nc(NC(=O)N2CCCC2C(N)=O)sc1-c1ccnc(C(C)(C)C(F)(F)F)c1
active: viability, T/C (second compound 10 µM, first compound 10 µM) 0.69%
inactive: viability, T/C [7] 30.4% | viability, T/C [8] 24.9% | viability, T/C (second compound 0.0316 µM, first compound 0.316 µM) 26.7% | viability, T/C (second compound 0.0316 µM, first compound 1 µM) 32.1% | viability, T/C (second compound 0.0316 µM, first compound 3.16 µM) 30.8% | viability, T/C (second compound 0.0316 µM, first compound 10 µM) 1.2% | viability, T/C [9] 27.2% | viability, T/C [10] 24.7% | viability, T/C (second compound 0.1 µM, first compound 0.316 µM) 32.2% | viability, T/C (second compound 0.1 µM, first compound 1 µM) 39.8% | viability, T/C (second compound 0.1 µM, first compound 3.16 µM) 28.7% | viability, T/C (second compound 0.1 µM, first compound 10 µM) 1.28% | viability, T/C [11] 25% | viability, T/C [12] 27.7% | viability, T/C (second compound 0.316 µM, first compound 0.316 µM) 26.9% | viability, T/C (second compound 0.316 µM, first compound 1 µM) 25.9% | viability, T/C (second compound 0.316 µM, first compound 3.16 µM) 32.7% | viability, T/C (second compound 0.316 µM, first compound 10 µM) 1.02% | viability, T/C [13] 26.6% | viability, T/C [14] 26.6% | viability, T/C (second compound 1 µM, first compound 0.316 µM) 31.8% | viability, T/C (second compound 1 µM, first compound 1 µM) 33.4% | viability, T/C (second compound 1 µM, first compound 3.16 µM) 30.6% | viability, T/C (second compound 1 µM, first compound 10 µM) 1.41% | viability, T/C [15] 29.6% | viability, T/C [16] 26.2% | viability, T/C (second compound 3.16 µM, first compound 0.316 µM) 28.6% | viability, T/C (second compound 3.16 µM, first compound 1 µM) 28.7% | viability, T/C (second compound 3.16 µM, first compound 3.16 µM) 29% | viability, T/C (second compound 3.16 µM, first compound 10 µM) 0.82% | viability, T/C [17] 23.9% | viability, T/C [18] 28.4% | viability, T/C (second compound 10 µM, first compound 0.316 µM) 24.6% | viability, T/C (second compound 10 µM, first compound 1 µM) 21.3% | viability, T/C (second compound 10 µM, first compound 3.16 µM) 21.2%
< 31.6 nM: IC50 [1] | IC50 [2] | IC50 [3] | IC50 [4] | IC50 [5] | IC50 [6]
